IC50 data for seven molecules are collected here from patent US8283473B2, “Platinum complex compound and utilization of the same” (Yakult Honsha Co., Ltd, priority 2008, dated 2012).

One assay concerns H460 non-small cell lung cancer cells. Description: In vitro cytotoxicity (inhibitory activity on cancer cell proliferation), MTT formazan absorbance assay. Format: cell-based. Conditions: Table 1; 24 hours incubation at 37° C., then 4 hours with tetrazolium dye; absorbance at 550 nm; read-out: IC50 value of platinum complex compounds for H460 non-small cell lung cancer cells. The protocol:
<Investigation of the In Vitro Cytotoxicity (Inhibitory Activity on Cancer Cell Proliferation) for H460 Non-Small Cell Lung Cancer Cells>
On the day prior to the day of agent addition, H460 non-small cell lung cancer cells were plated onto 24-well flatbottom microplates at 12,000 to 20,000 cells/well. An aqueous solution was prepared for each sample (refer to the sample numbers in Table 1) by dissolving the sample in Q-H2O water to a concentration of 100 μM. These aqueous solutions were diluted to provide solutions with various concentrations, and 1 mL of the particular dilution was introduced into each well. After incubation of the microplate for 24 hours at 37° C., […] a 2,5-diphenyl-3-(4,5-dimethylthiazol-2-yl)tetrazolium bromide (MIT) solution (5 mg/mL) was added to each well and incubation was continued for an additional 4 hours at 37° C. 200 μL dimethyl sulfoxide (DMSO) was added to each well in order to dissolve the formazan produced and precipitated as a result of reduction of the MIT. The absorbance at 550 nm of each well was measured using a microplate reader.
The absorbance of each well was measured three times and each experiment was repeated at least three times. The IC50 value was calculated as the concentration that provided a 50% formazan production with reference to the control (no agent addition).
Background: Formazan colour is commonly taken as a measure of viable cells.
In the case of `N.N.[Cl][Pt][Cl]` [sample 3, cis-diamminedichloridoplatinum(II)], the IC50 – broadly, the concentration at which inhibition is half-maximal – was 23 µM.

Staying with this assay, now noted: Table 2; same procedure, 24 hours incubation at 37° C.; absorbance at 550 nm; read-out: IC50 value of platinum complex compounds for H460 non-small cell lung cancer cells.
Take “[{cis-Pt(NH3)2}2(μ-OH)(μ-tetrazolato-5-ethylacetate-N2,N3)](NO3)2 [sample 7]”: the half-inhibitory concentration (IC50) amounted to 22 µM.

As to `O=[N+]([O-])O.O=[N+]([O-])[O-].[NH2][Pt]1([NH2])[O][Pt]([NH2])([NH2])[n+]2ncc[n]21` [sample 9, [{cis-Pt(NH3)2}2(μ-OH)(μ-1,2,3-triazolato-N1,N2)](NO3)2], the IC50 is 62 µM.

Turning to “[{cis-Pt(NH3)2}2(μ-OH)(μ-tetrazolato-N1,N2)](ClO4)2 [sample 4]”, the 50% inhibitory concentration (IC50) worked out at 21 µM.

As to “[{cis-Pt(NH3)2}2(μ-OH)(μ-pyrazolato)](NO3)2 [sample 8]”, the IC50 was greater than 100 µM.

Turning to “[{cis-Pt(NH3)2}2(μ-OH)(μ-5-methyltetrazolato-N2,N3)](NO3)2 [sample 6]”, the IC50 was 20 µM.

Regarding “[{cis-Pt(NH3)2}2(μ-OH)(μ-tetrazolato-N2,N3)](ClO4)2 [sample 5]”, the IC50 was found to be 8.3 µM.

Turning to `N.N.[Cl][Pt][Cl]` [sample 3, cis-diamminedichloridoplatinum(II)], the IC50 was found to be 23 µM.
